Experimental data published in article PMC3207847, “Characterization of a Novel Type of HIV-1 Particle Assembly Inhibitor Using a Quantitative Luciferase-Vpr Packaging-Based Assay” (PLoS ONE, 2011).
Values after ≈ are worked out from the molar mass of the structure shown. Where two headings read alike, the source gives them in different places.

Key:
[1] = system: HIV-1 VLP assembly; test: microbe, parasite or virus in culture; details: for IC50: Human immunodeficiency virus 1, 24 h; for SI (ratio CC50:IC50): selectivity index
Procedure: Cell culture medium was then harvested at 48 h pi, subjected to the 2-step ultracentrifugation analysis, and each gradient fraction probed for Gag polyprotein and luciferase activity, as above. […] The gradient fractions corresponding to the peak of luciferase activity were pooled, and the VLP contained in these fractions were pelleted, lysed and assayed for luciferase content.
Drug treatment was maintained for a further 24 h, and VLP released in the cell culture medium were pelleted through a sucrose cushion. The amounts of extracellular VLP recovered in the 48 h-pellets obtained in the presence of the different inhibitors were determined using the luciferase assays. After normalization to the luciferase activity determined in the corresponding cell lysates, the values of the ratio of VLP-incorporated to cell-associated luciferase activity were plotted versus the drug concentrations.
Sf9 cell culture supernatants were clarified by low-speed centrifugation, then VLP recovered using a two-step procedure comprising a sucrose-step gradient centrifugation, followed by an ultracentrifugation in linear D2O-sucrose gradient, [53]. (i) In the first step, VLP contained in the cell culture medium were pelleted through a sucrose cushion (20%, w:v, in TNE buffer; TNE: 100 mM NaCl, 10 mM Tris-HCl pH 7.4, 1 mM Na2EDTA) at 30 krpm for 1 h at 15°C in a Kontron TST55.5 rotor [12]. Pelleted VLP of step (i) were then gently resuspended in PBS (0.20–0.25 ml), and (ii) further analyzed by isopycnic ultracentrifugation in sucrose-D2O gradients, [53]. Linear gradients (10-ml total volume, 30–50%, w:v) were centrifuged for 18 h at 28 krpm in a Beckman SW41 rotor. The 50% sucrose solution was made in D2O buffered to pH 7.2 with NaOH, and the 30% sucrose solution was made in 10 mM Tris-HCl, pH 7.2, 150 mM NaCl, 5.7 mM Na2EDTA. Aliquots of 0.5 ml were collected from the top, and fractions analyzed for protein content by SDS-PAGE and immunoblotting, and by luciferase assay as described below.
Aliquots of Sf9 cells (10^6) were infected with two recombinant baculoviruses at equal multiplicity of infection (MOI of 10 PFU/cell, each). One expressed the HIV-1 Gag precursor (AcMNPV-Pr55Gag or control, p6-deleted AcMNPV-GagΔp6), the other the control Vpr protein (AcMNPV-Vpr) or the LucVpr fusion (AcMNPV-LucVpr). […] To avoid any interference with a possible effect of DMSO, DMSO was kept constant in volume in the different samples. […] Cells were harvested at 48 h pi, and extracellular VLP released in the culture medium were quantitated using luciferase assay. Membrane-enveloped VLP were pelleted and resuspended in lysis KDT buffer (KDT: 0.1 M potassium phosphate buffer, pH 7.8, 1 mM DTT, containing 0.2% Triton X100) for 30 min at 37°C with vortexing every 10 min. Luciferase activity associated with VLP was measured as previously described, using a Lumat LB-9501 luminometer (Berthold Technologies, Bad Wildbad, Germany). […] To compensate for eventual negative effects of drugs on LucVpr expression, the luciferase activity was measured in the corresponding cell lysates, obtained after lysis of the pelleted cells with KDT buffer. The results were expressed as relative light units (RLU) per µg protein. The values of the ratio of VLP-associated to intracellular luciferase activity were plotted versus the inhibitor concentration.

[2] = MTT cytotoxicity assay; format: cell-based, Spodoptera frugiperda; details: Spodoptera frugiperda, MTT assay, mean
Procedure: (§1) The cellular toxicity of the different compounds was evaluated using the MTT assays. […] The selectivity index (SI) was defined as the CC50 to IC50 ratio.

[3] = system: HIV-1; details: read-out: mean IC50, maturation cleavage of CAp24-SP1 / virus infectivity; cited from earlier work
[4] = system: HIV-1 VLP assembly and budding; test: Electron microscopy of AcMNPV-Gag-infected Sf9 cells and released particles; format: cell-based; details: 5 and 10 µg/ml for 24 h at 24 h pi
Procedure: By contrast, control, untreated AcMNPV-Gag-infected Sf9 cells were decorated with VLP budding in abundance from the plasma membrane ( Fig. 8 , a; and also refer to [12], [28], [30], [32], [33], [53]).
Baculovirus-infected Sf9 cells were harvested at 48 h pi, pelleted, fixed with 2.5% glutaraldehyde in 0.1 M phosphate buffer, pH 7.5, post-fixed with osmium tetroxide (2% in H2O) and treated with 0.5% tannic acid solution in H2O. The specimens were dehydrated and embedded in Epon (Epon-812; Fulham, Latham, NY). Ultrathin sections were stained with 2.6% alkaline lead citrate and 0.5% uranyl acetate in 50% ethanol, and post-stained with 0.5% uranyl acetate solution in H2O [12], [28], [53]. Grids were examined under a Jeol JEM-1400 electron microscope, equiped with an ORIUS™ digitalized camera (Gatan France, 78113-Grandchamp). For statistical EM analyses, a minimum of 30 grid squares containing 10 to 20 cell sections each were examined for counting VLP budding at the cell surface, or budding in intracellular vesicular compartment.

[5] = system: Sf9 cells; test: MTT cytotoxicity assay; format: cell-based, Spodoptera frugiperda
Procedure: as §1

[6] = system: HIV-1 VLP assembly and budding; details: cited from earlier work
[7] = system: HIV-1 VLP assembly and budding; details: 10 µg/ml (17 µM); AcMNPV-Gag-infected Sf9 cells; cited from earlier work
[8] = read-out: IC50 (µM), 50% inhibitory activity on VLP assembly, Sf9 cells coexpressing Pr55Gag and LucVpr, drug added at 24 h pi for 24 h, mean
[9] = read-out: IC50 (µg/ml), 50% inhibitory activity on VLP assembly, Sf9 cells coexpressing Pr55Gag and LucVpr, drug added at 24 h pi for 24 h, mean ± SEM, n = 4

SMILES | IC50 [1, 8] [µM] | IC50 [1, 9] [µg/mL] | SI (ratio CC50:IC50) [1] | CC50 ([2]; Sf9 cells) [µM] | also measured
C=C(C)[C@@H]1CC[C@]2(C(=O)O)CC[C@]3(C)[C@H](CC[C@@H]4[C@@]5(C)CC[C@H](O)C(C)(C)[C@@H]5CC[C@]43C)[C@@H]12 [BA, betulinic acid, reference compound] | 39.4 | 18 ± 3 | 1.1 |  | CC50 [2]: 43.8 µM
C=C(C)[C@@H]1CC[C@]2(C(=O)NCCN)CC[C@]3(C)C(CCC4[C@@]5(C)CC[C@H](OC(=O)CC(C)(C)C(=O)O)C(C)(C)C5CC[C@]43C)C12 (some centres unmarked) [EP-39, ethylene diamine-conjugated DSB] |  |  |  | 120 | IC50 [3]: 0.016 µM
C=C(C)[C@@H]1CC[C@]2(C(=O)NC(CCCCNC(=O)OC(C)(C)C)C(=O)O)CC[C@]3(C)C(CCC4[C@@]5(C)CC[C@H](OC(=O)CC(C)(C)C(=O)O)C(C)(C)C5CC[C@]43C)C12 (some centres unmarked) [EP-47, ε-N-tert-butoxycarbonyl-lysine-conjugated DSB] | 1.9 | 1 to 2 | 13.0 | 24.7 | IC50 (µg/ml), 50% inhibitory activity on VLP assembly ([1]; Sf9 cells coexpressing Pr55Gag and LucVpr, drug added at 24 h pi for 24 h, mean ± SEM, n = 4): 1.6 ± 0.5 µg/mL (≈ 1.97 µM); Effect on VLP assembly and budding (EM pattern) [4]: net inhibitory effect on VLP assembly and budding
C=C(C)[C@@H]1CC[C@]2(C(=O)NCCC(=O)O)CC[C@]3(C)C(CCC4[C@@]5(C)CC[C@H](OC(=O)CC(C)(C)C(=O)O)C(C)(C)C5CC[C@]43C)C12 (stereo partly drawn) [EP-48, beta-alanine-conjugated DSB] |  |  |  | 4.2 | Effect on VLP assembly (in words) [1]: no specific effect on VLP assembly; Cytotoxic effect (in words) [5]: pronounced cytotoxic effect
C=C(C)[C@@H]1CC[C@]2(C(=O)NC(CCCCN)C(=O)O)CC[C@]3(C)C(CCC4[C@@]5(C)CC[C@H](OC(=O)CC(C)(C)C(=O)O)C(C)(C)C5CC[C@]43C)C12 (some centres unmarked) [EP-62, lysine-conjugated DSB with free lysine ε-NH2 group] | 4.8 | 3.4 ± 0.4 | 0.7 | 3.5 | Effect on VLP assembly (in words) [1]: no specific effect on VLP assembly; Cytotoxic effect (in words) [5]: pronounced cytotoxic effect
C=C(C)[C@@H]1CC[C@]2(C(=O)O)CC[C@]3(C)[C@H](CC[C@@H]4[C@@]5(C)CC[C@H](OC(=O)CC(C)(C)C(=O)O)C(C)(C)[C@@H]5CC[C@]43C)[C@@H]12 [PA-457, 3-O-(3',3'-dimethylsuccinyl)-betulinic acid] |  |  |  |  | IC50 ([6]; immuno-radiochemical assay of VLP): 8 to 10 µM; IC50 on assembly and budding of HIV-1 VLP ([6]; insect cells expressing Pr55Gag, previous study ref 12): 5 to 6 µg/mL; Effect on VLP budding and egress [7]: totally abolished VLP budding and egress
C=C(C)[C@@H]1CC[C@]2(C(=O)NCC(=O)O)CC[C@]3(C)C(CCC4[C@@]5(C)CC[C@H](OC(=O)CC(C)(C)C(=O)O)C(C)(C)C5CC[C@]43C)C12 (some centres unmarked) [ST-327, Glycine-conjugated DSB] | 5.9 | 3.8 ± 1.6 | 5.3 | 31.1 | Effect on VLP assembly and budding (EM pattern) [4]: net inhibitory effect on VLP assembly and budding
